# What was measured:
# Assay in all cases: relative viability (nuclei count vs DMSO), 5 days (fraction); higher = more cells survive
# HCC-366 = system: HCC-366
# How it was run: (§1)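 Lung cancer cell lines were pin-tool dosed in 1536-well plates on the day after seeding, with either a lone drug or a fixed anchor-drug dose plus five library-drug doses (not always all listed) in √10 steps. Nuclei were counted on 4× images after 5 days. Relative viability is the ratio of treated-well to vehicle-well nuclei counts, with each value a median of duplicate plates.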
# SK-MES-1 = system: SK-MES-1
# How it was run: as §1
# LC-2-ad = system: LC-2-ad
# How it was run: as §1
# NCI-H1395 = system: NCI-H1395
# How it was run: as §1
# NCI-H1734 = system: NCI-H1734
# How it was run: as §1
# EKVX = system: EKVX
# How it was run: as §1
# NCI-H2170 = system: NCI-H2170
# How it was run: as §1
# NCI-H647 = system: NCI-H647
# How it was run: as §1
# NCI-H1792 = system: NCI-H1792
# How it was run: as §1
# LOU-NH91 = system: LOU-NH91
# How it was run: as §1
# NCI-H2087 = system: NCI-H2087
# How it was run: as §1
# SK-LU-1 = system: SK-LU-1
# How it was run: as §1
# NCI-H596 = system: NCI-H596
# How it was run: as §1
# NCI-H1355 = system: NCI-H1355
# How it was run: as §1
# NCI-H2009 = system: NCI-H2009
# How it was run: as §1
# HCC-827 = system: HCC-827
# How it was run: as §1
# NCI-H2228 = system: NCI-H2228
# How it was run: as §1
# NCI-H1437 = system: NCI-H1437
# How it was run: as §1
# NCI-H2405 = system: NCI-H2405
# How it was run: as §1
# HARA = system: HARA
# How it was run: as §1
# NCI-H661 = system: NCI-H661
# How it was run: as §1
# BEN = system: BEN
# How it was run: as §1
compound,measurement,setting,value
Oc1nc(-c2ccc(C(F)(F)F)cc2)nc2c1CSCC2 [XAV939] + Cc1nc(NC(=O)N2CCC[C@H]2C(N)=O)sc1-c1ccnc(C(C)(C)C(F)(F)F)c1 [Alpelisib] (partner 2 µM),relative viability,HCC-366; first compound 0.08 µM,0.535
same,relative viability,HCC-366; first compound 0.253 µM,0.308
same,relative viability,HCC-366; first compound 0.8 µM,0.446
same,relative viability,HCC-366; first compound 2.53 µM,0.389
same,relative viability,SK-MES-1; first compound 0.08 µM,0.994
same,relative viability,SK-MES-1; first compound 0.253 µM,0.912
same,relative viability,SK-MES-1; first compound 0.8 µM,0.911
same,relative viability,SK-MES-1; first compound 2.53 µM,0.757
same,relative viability,LC-2-ad; first compound 0.08 µM,0.901
same,relative viability,LC-2-ad; first compound 0.253 µM,0.711
same,relative viability,LC-2-ad; first compound 0.8 µM,0.848
same,relative viability,LC-2-ad; first compound 2.53 µM,0.804
same,relative viability,NCI-H1395; first compound 0.08 µM,1.09
same,relative viability,NCI-H1395; first compound 0.253 µM,1.03
same,relative viability,NCI-H1395; first compound 0.8 µM,1.08
same,relative viability,NCI-H1395; first compound 2.53 µM,1.06
same,relative viability,NCI-H1734; first compound 0.08 µM,0.713
same,relative viability,NCI-H1734; first compound 0.253 µM,0.64
same,relative viability,NCI-H1734; first compound 0.8 µM,0.634
same,relative viability,NCI-H1734; first compound 2.53 µM,0.606
same,relative viability,EKVX; first compound 0.08 µM,0.825
same,relative viability,EKVX; first compound 0.253 µM,0.67
same,relative viability,EKVX; first compound 0.8 µM,0.731
same,relative viability,EKVX; first compound 2.53 µM,0.548
same,relative viability,NCI-H2170; first compound 0.08 µM,0.855
same,relative viability,NCI-H2170; first compound 0.253 µM,0.612
same,relative viability,NCI-H2170; first compound 0.8 µM,0.654
same,relative viability,NCI-H2170; first compound 2.53 µM,0.578
same,relative viability,NCI-H647; first compound 0.08 µM,1.25
same,relative viability,NCI-H647; first compound 0.253 µM,1
same,relative viability,NCI-H647; first compound 0.8 µM,1.06
same,relative viability,NCI-H647; first compound 2.53 µM,0.922
same,relative viability,NCI-H1792; first compound 0.08 µM,0.924
same,relative viability,NCI-H1792; first compound 0.253 µM,0.667
same,relative viability,NCI-H1792; first compound 0.8 µM,0.671
same,relative viability,NCI-H1792; first compound 2.53 µM,0.594
same,relative viability,LOU-NH91; first compound 0.08 µM,0.687
same,relative viability,LOU-NH91; first compound 0.253 µM,0.659
same,relative viability,LOU-NH91; first compound 0.8 µM,0.714
same,relative viability,LOU-NH91; first compound 2.53 µM,0.648
same,relative viability,NCI-H2087; first compound 0.08 µM,1.24
same,relative viability,NCI-H2087; first compound 0.253 µM,0.914
same,relative viability,NCI-H2087; first compound 0.8 µM,1.09
same,relative viability,NCI-H2087; first compound 2.53 µM,0.889
same,relative viability,SK-LU-1; first compound 0.08 µM,0.993
same,relative viability,SK-LU-1; first compound 0.253 µM,0.883
same,relative viability,SK-LU-1; first compound 0.8 µM,1
same,relative viability,SK-LU-1; first compound 2.53 µM,1.07
same,relative viability,NCI-H596; first compound 0.08 µM,0.456
same,relative viability,NCI-H596; first compound 0.253 µM,0.587
same,relative viability,NCI-H596; first compound 0.8 µM,0.534
same,relative viability,NCI-H596; first compound 2.53 µM,0.493
same,relative viability,NCI-H1355; first compound 0.08 µM,0.78
same,relative viability,NCI-H1355; first compound 0.253 µM,0.654
same,relative viability,NCI-H1355; first compound 0.8 µM,0.75
same,relative viability,NCI-H1355; first compound 2.53 µM,0.489
same,relative viability,NCI-H2009; first compound 0.08 µM,1.22
same,relative viability,NCI-H2009; first compound 0.253 µM,1.2
same,relative viability,NCI-H2009; first compound 0.8 µM,1.12
same,relative viability,NCI-H2009; first compound 2.53 µM,0.987
same,relative viability,HCC-827; first compound 0.08 µM,1.04
same,relative viability,HCC-827; first compound 0.253 µM,0.934
same,relative viability,HCC-827; first compound 0.8 µM,0.967
same,relative viability,HCC-827; first compound 2.53 µM,0.969
same,relative viability,NCI-H2228; first compound 0.08 µM,0.708
same,relative viability,NCI-H2228; first compound 0.253 µM,0.757
same,relative viability,NCI-H2228; first compound 0.8 µM,0.536
same,relative viability,NCI-H2228; first compound 2.53 µM,0.463
same,relative viability,NCI-H1437; first compound 0.08 µM,1.03
same,relative viability,NCI-H1437; first compound 0.253 µM,0.709
same,relative viability,NCI-H1437; first compound 0.8 µM,0.97
same,relative viability,NCI-H1437; first compound 2.53 µM,0.715
same,relative viability,NCI-H2405; first compound 0.08 µM,0.922
same,relative viability,NCI-H2405; first compound 0.253 µM,0.804
same,relative viability,NCI-H2405; first compound 0.8 µM,0.732
same,relative viability,NCI-H2405; first compound 2.53 µM,0.635
same,relative viability,HARA; first compound 0.08 µM,1.02
same,relative viability,HARA; first compound 0.253 µM,0.643
same,relative viability,HARA; first compound 0.8 µM,0.842
same,relative viability,HARA; first compound 2.53 µM,0.709
same,relative viability,NCI-H661; first compound 0.08 µM,0.655
same,relative viability,NCI-H661; first compound 0.253 µM,0.621
same,relative viability,NCI-H661; first compound 0.8 µM,0.833
same,relative viability,NCI-H661; first compound 2.53 µM,0.492
same,relative viability,BEN; first compound 0.08 µM,1.08
same,relative viability,BEN; first compound 0.253 µM,0.921
same,relative viability,BEN; first compound 0.8 µM,1.01
